Experimental data taken from US20240002374A1, “5-MEMBERED HETEROARYLAMINOSULFONAMIDES FOR TREATING CONDITIONS MEDIATED BY DEFICIENT CFTR ACTIVITY” (Genzyme Corporation, priority 2019, published 2024).

These compounds were tested against T1, CFTR (primary human bronchial epithelial cells from a ΔF508 homozygous CF donor, CF-HBE cells) (Homo sapiens, UniProt P13569, DEL508-508) (assay: TECC24 recording of CFTR-mediated transepithelial chloride transport (TECC24 AUC fold over DMSO @ 3 μM)). Details: 3 uM test agent; CF-HBE cells (ΔF508 homozygous) incubated 48 h; ratio of test agent AUC of forskolin-stimulated IEQ to vehicle (DMSO) AUC.
T1 construct: Primary human bronchial epithelial cells from a ΔF508 homozygous CF donor; host or cells: primary human bronchial epithelial cells (CF-HBE) from a ΔF508 homozygous CF donor
T1 sequence (P13569 with tags, fused parts or gaps DEL508-508): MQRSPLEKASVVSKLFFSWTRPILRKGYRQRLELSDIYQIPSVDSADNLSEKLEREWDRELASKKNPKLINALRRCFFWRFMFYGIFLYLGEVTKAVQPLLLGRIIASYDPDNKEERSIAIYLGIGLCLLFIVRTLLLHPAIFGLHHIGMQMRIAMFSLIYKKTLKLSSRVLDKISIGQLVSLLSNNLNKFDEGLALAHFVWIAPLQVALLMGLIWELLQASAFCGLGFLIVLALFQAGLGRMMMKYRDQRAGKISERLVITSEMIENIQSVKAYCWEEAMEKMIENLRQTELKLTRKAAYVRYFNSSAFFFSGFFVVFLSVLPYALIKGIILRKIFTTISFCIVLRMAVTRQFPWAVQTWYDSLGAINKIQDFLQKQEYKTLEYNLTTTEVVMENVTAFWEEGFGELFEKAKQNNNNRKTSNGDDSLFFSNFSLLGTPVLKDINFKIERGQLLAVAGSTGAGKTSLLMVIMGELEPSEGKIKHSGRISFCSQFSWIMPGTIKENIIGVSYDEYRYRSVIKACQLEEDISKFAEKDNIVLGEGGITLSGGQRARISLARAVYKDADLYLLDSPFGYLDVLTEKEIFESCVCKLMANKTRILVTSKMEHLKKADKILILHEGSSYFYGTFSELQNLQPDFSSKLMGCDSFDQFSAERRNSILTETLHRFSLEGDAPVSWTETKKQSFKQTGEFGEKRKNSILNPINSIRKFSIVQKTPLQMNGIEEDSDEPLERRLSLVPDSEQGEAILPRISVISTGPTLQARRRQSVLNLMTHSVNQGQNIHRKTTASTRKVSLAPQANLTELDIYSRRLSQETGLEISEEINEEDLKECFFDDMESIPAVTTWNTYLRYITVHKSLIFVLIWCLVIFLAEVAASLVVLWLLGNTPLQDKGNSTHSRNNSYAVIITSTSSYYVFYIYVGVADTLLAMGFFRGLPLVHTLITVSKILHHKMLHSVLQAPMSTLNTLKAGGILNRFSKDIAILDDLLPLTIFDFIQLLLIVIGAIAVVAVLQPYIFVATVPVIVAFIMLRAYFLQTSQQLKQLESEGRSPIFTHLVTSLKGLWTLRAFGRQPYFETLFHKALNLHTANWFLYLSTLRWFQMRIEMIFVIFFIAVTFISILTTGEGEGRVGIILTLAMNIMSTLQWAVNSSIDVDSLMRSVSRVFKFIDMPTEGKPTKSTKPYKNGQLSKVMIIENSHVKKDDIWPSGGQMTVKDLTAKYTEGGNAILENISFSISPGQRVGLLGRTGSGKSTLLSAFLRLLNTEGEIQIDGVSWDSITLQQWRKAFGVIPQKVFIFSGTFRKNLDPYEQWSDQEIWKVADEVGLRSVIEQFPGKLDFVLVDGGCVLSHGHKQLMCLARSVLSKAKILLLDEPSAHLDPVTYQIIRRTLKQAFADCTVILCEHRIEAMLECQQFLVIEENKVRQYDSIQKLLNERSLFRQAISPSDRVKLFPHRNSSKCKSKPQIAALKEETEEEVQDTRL
Assay type: cell-based
How it was run: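 ΔF508-homozygous CF-HBE cells incubated 48 h at 36.5° C with test agent (3 μM) in IL-13-containing medium, then recorded in current clamp with benzamil (10 μM), forskolin (10 μM) and bumetanide (20 μM). AUC of equivalent Cl− current between forskolin and bumetanide expressed as fold over DMSO vehicle.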

TECC AUC vs. DMSO @ 3 uM	Structure (SMILES)
A (“A” refers to AUC > 5)	Cc1cccc(C)c1-c1nc(NS(=O)(=O)c2cccc(N(C)C)n2)sc1-c1cccc(C2CCC(C)(C)C2)c1 (stereo not drawn) [Example 342, 6-(dimethylamino)-N-[5-[3-(3,3-dimethylcyclopentyl)phenyl]-4-(2,6-dimethylphenyl)-1,3-thiazol-2-yl]pyridine-2-sulfonamide]
A (“A” refers to AUC > 5)	CC(C)c1ccccc1-c1nc(NS(=O)(=O)c2cccc(N)n2)sc1N1CCOC2(CCC(C)(C)C2)C1 (stereo not drawn) [Example 349, 6-amino-N-[5-(3,3-dimethyl-6-oxa-9-azaspiro[4.5]decan-9-yl)-4-(2-propan-2-ylphenyl)-1,3-thiazol-2-yl]pyridine-2-sulfonamide]
A (“A” refers to AUC > 5)	Cc1cccc(C)c1-c1nc(NS(=O)(=O)c2cccc(N(C)C)n2)sc1-c1cccc(OC2CCC(C)(C)C2)c1 (stereo not drawn) [Example 358, 6-(dimethylamino)-N-[5-[3-(3,3-dimethylcyclopentyl)oxyphenyl]-4-(2,6-dimethylphenyl)-1,3-thiazol-2-yl]pyridine-2-sulfonamide]
A (“A” refers to AUC > 5)	Cc1cccc(C)c1-c1nc(NS(=O)(=O)c2ccccc2)sc1C1=CC(CC(C)(C)C)OCC1 (stereo not drawn) [Example 370, N-[4-(2,6-dimethylphenyl)-5-[6-(2,2-dimethylpropyl)-3,6-dihydro-2H-pyran-4-yl]-1,3-thiazol-2-yl]benzenesulfonamide]
A (“A” refers to AUC > 5)	CC(C)Oc1cc(Cl)ccc1-c1nc(NS(=O)(=O)c2cccc(N)c2F)sc1-c1cccc(OCC(F)(F)C(C)(C)C)c1 [Example 382]
A (“A” refers to AUC > 5)	Cc1cccc(C)c1-c1nc(NS(=O)(=O)c2ccccc2)sc1N1C[C@H](OC(C)(C)C)C[C@H]1C [Example 402, N-[4-(2,6-dimethylphenyl)-5-[(2R,4R)-2-methyl-4-[(2-methylpropan-2-yl)oxy]pyrrolidin-1-yl]-1,3-thiazol-2-yl]benzenesulfonamide]
A (“A” refers to AUC > 5)	CC(C)c1ccccc1-c1nc(NS(=O)(=O)c2cccc(N[C@H](C)C(F)(F)F)c2)sc1-c1cccc(OCC(C)(C)C)c1 [Example 429, N-[5-[3-(2,2-dimethylpropoxy)phenyl]-4-(2-propan-2-ylphenyl)-1,3-thiazol-2-yl]-3-[[(2R)-1,1,1-trifluoropropan-2-yl]amino]benzenesulfonamide]
B (“B” refers to AUC 2-5)	CC(C)c1ccccc1-c1nc(NS(=O)(=O)c2cccc(NC(C)C(F)(F)F)c2)sc1-n1ccc(OCC(C)(C)C(F)(F)F)n1 (stereo not drawn) [Example 471, N-[4-(2-propan-2-ylphenyl)-5-[3-(3,3,3-trifluoro-2,2-dimethylpropoxy)pyrazol-1-yl]-1,3-thiazol-2-yl]-3-(1,1,1-trifluoropropan-2-ylamino)benzenesulfonamide]
B (“B” refers to AUC 2-5)	Cc1cccc(C)c1-c1nc(NS(=O)(=O)c2cn(C)nc2C)sc1N1CCOC2(CCC(OC(F)(F)F)C2)C1 (stereo not drawn) [Example 491, N-[4-(2,6-dimethylphenyl)-5-[3-(trifluoromethoxy)-6-oxa-9-azaspiro[4.5]decan-9-yl]-1,3-thiazol-2-yl]-1,3-dimethylpyrazole-4-sulfonamide]
B (“B” refers to AUC 2-5)	Cc1cccc(C)c1-c1nc(NS(=O)(=O)c2cn(C)nc2C)sc1N1C[C@H](OC(C)(C)C)C[C@H]1C [Example 495, N-[4-(2,6-dimethylphenyl)-5-[(2R,4R)-2-methyl-4-[(2-methylpropan-2-yl)oxy]pyrrolidin-1-yl]-1,3-thiazol-2-yl]-1,3-dimethylpyrazole-4-sulfonamide]

Structure (SMILES)	TECC AUC vs. DMSO @ 3 uM
Cc1cccc(C(F)(F)F)c1-c1nc(NS(=O)(=O)c2cccc(N)n2)sc1-c1cc(F)cc(OCCC(C)(C)C)c1 [Example 312, 6-amino-N-[5-[3-(3,3-dimethylbutoxy)-5-fluorophenyl]-4-[2-methyl-6-(trifluoromethyl)phenyl]-1,3-thiazol-2-yl]pyridine-2-sulfonamide]	A (“A” refers to AUC > 5)
Cc1cccc(OC(C)C)c1-c1nc(NS(=O)(=O)c2cccc(N(C)C)n2)sc1-c1cccc(OCCC(C)(C)C)c1 [Example 329, 6-(dimethylamino)-N-[5-[3-(3,3-dimethylbutoxy)phenyl]-4-(2-methyl-6-propan-2-yloxyphenyl)-1,3-thiazol-2-yl]pyridine-2-sulfonamide]	A (“A” refers to AUC > 5)
Cc1cccc(C)c1-c1nc(NS(=O)(=O)c2cccc(N(C)C)n2)sc1-c1cccc(OCCC(C)(C)C)c1 [Example 334, 6-(dimethylamino)-N-[5-[3-(3,3-dimethylbutoxy)phenyl]-4-(2,6-dimethylphenyl)-1,3-thiazol-2-yl]pyridine-2-sulfonamide]	A (“A” refers to AUC > 5)
CC(C)c1ccccc1-c1nc(NS(=O)(=O)c2ccnc(N)c2)sc1-c1cccc(OCCC(C)(C)C)c1 [Example 362, 2-amino-N-[5-[3-(3,3-dimethylbutoxy)phenyl]-4-(2-propan-2-ylphenyl)-1,3-thiazol-2-yl]pyridine-4-sulfonamide]	A (“A” refers to AUC > 5)
CC(C)Oc1cc(Cl)ccc1-c1nc(NS(=O)(=O)c2ccccc2)sc1-c1ccc(OC(F)F)c(OCCC(C)(C)C)c1 [Example 380, N-[4-(4-chloro-2-propan-2-yloxyphenyl)-5-[4-(difluoromethoxy)-3-(3,3-dimethylbutoxy)phenyl]-1,3-thiazol-2-yl]benzenesulfonamide]	A (“A” refers to AUC > 5)
CNc1ccc(F)c(S(=O)(=O)Nc2nc(-c3c(C)cccc3C(F)(F)F)c(-c3cccc(OCCC(C)(C)C)c3)s2)c1 [Example 389, N-[5-[3-(3,3-dimethylbutoxy)phenyl]-4-[2-methyl-6-(trifluoromethyl)phenyl]-1,3-thiazol-2-yl]-2-fluoro-5-(methylamino)benzenesulfonamide]	A (“A” refers to AUC > 5)
COC(=O)C1CCCC(Nc2cccc(S(=O)(=O)Nc3nc(-c4c(C)cccc4C)c(-c4cccc(OCCC(C)(C)C)c4)s3)n2)C1 (stereo not drawn) [Example 435, methyl 3-[[6-[[5-[3-(3,3-dimethylbutoxy)phenyl]-4-(2,6-dimethylphenyl)-1,3-thiazol-2-yl]sulfamoyl]pyridin-2-yl]amino]cyclohexane-1-carboxylate]	A (“A” refers to AUC > 5)
CC(C)c1ccccc1-c1nc(NS(=O)(=O)c2cccc(N)c2)sc1-c1cccc(OCC(F)(F)C(C)(C)C)c1 [Example 490, 3-amino-N-[5-[3-(2,2-difluoro-3,3-dimethylbutoxy)phenyl]-4-(2-propan-2-ylphenyl)-1,3-thiazol-2-yl]benzenesulfonamide]	B (“B” refers to AUC 2-5)
